Reference: patent US20170319611A1, “METHODS AND COMPOSITIONS COMPRISING AKT INHIBITORS AND/OR PHOSPHOLIPASE D INHIBITORS” (Vanderbilt University, priority 2012, published 2017)

Experiments:
LC3 and p62 = test: Autophagy marker immunoblot (LC3-II, p62), U87MG cells; type: cell-based, human; conditions: 10 nM bafilomycin A1 30 min, then inhibitor 6 h
Procedure: Lysates were prepared by incubating cell pellets in lysis buffer (see immunoprecipitation procedure) for 30 minutes at 4° C. Protein concentrations were measuring using the Bio-Rad protein assay reagent. The antibodies used in the various studies as described herein, along with their vendors and catalog numbers are provided in Table 3.
In addition to apoptosis, cells undergo another type of programmed cell death requiring autophagy (Tsujimoto and Shimizu, (2005) Cell Death Differ. 12 Suppl 2, 1528-1534), a process known to be stimulated by nutrient or growth factor deprivation (Kroemer, G. et al., (2010) Mol. Cell 40, 280-293). Autophagy is a multistep process involving formation of double-membrane autophagosomes that engulf cytosolic components and deliver cargo to lysosomes for digestion and nutrient recycling (Ravikumar, B. et al., (2009) J. Cell Sci. 122, 1707-1711). In order to determine if autophagy was perturbed following PLD or Akt inhibitor (MK2206) (Hirai, H. et al., (2010) Mol. Cancer Ther. 9, 1956-1967) treatment, the expression levels of the well-characterized autophagy makers microtubule-associated protein 1A/1B-light chain 3 (LC3) and p62 were measured. Autophagasome number is frequently assessed by measuring conversion of cytosolic LC3-I to a membrane-associated, lipidated LC3-II which is readily measureable as a faster migrating species of LC3 during SDS-PAGE (Kabeya, Y. et al., (2000) EMBO J. 19, 5720-5728). The other marker, p62, is an LC3 and ubiquitin-binding protein, involved in the regulation of protein aggregates and is degraded by autophagy (Komatsu, M. et al., (2005) J. Cell Biol. 169, 425-434). Induction of autophagy and successful degradation of autophagosomes would thus be accompanied by a decrease in p62 levels. […] Fold change in immunoreactivity relative to vehicle control. ANOVA with Dunnett's post-hoc test was used to compare inhibitor treatment to vehicle control (**p<0.01).
To conclusively determine that flux, rather than autophagosome initiation, is regulated by PLC, LC3-II conversion in the presence of the lysosomal proton pump inhibitor bafilomycin A1, which prevents autophagosome fusion to lysosomes and inhibits degradation of autophagosomes, was measured. Thus, bafilomycin A1 is commonly used to discriminate the effects of a compound on autophagy initiation versus flux by assessing LC3-II levels in the presence of a test compound after clamping degradation of autophagosomes (Yamamoto, A. et al., (1998) Cell Struct. Funct. 23, 33-42).

myrAktl = test: Akt phosphorylation immunoblot, myrAktl U87MG cells; type: cell-based, human; conditions: overnight, serum-free DMEM; 10 μM EVJ or 5 μM JWJ
Procedure: To confirm the observed effects on autophagy and cell death following PLD inhibition in glioma cells was due to the regulation of Akt by PLD2, a stable U87MG cell line was developed to expresses a constitutively active form of Akt under the transcriptional control of the tetracycline repressor protein (Yao, F. et al., (1998) Hum. Gene Ther. 9, 1939-1950). This Akt construct contains the myristoylation sequence from Src kinase (Kohn, A. D. et al., (1996) J. Biol. Chem. 271, 31372-31378) and is constitutively membrane associated and active. Without wishing to be bound by a particular theory, if PtdOH serves to enhance membrane docking of Akt then PLD inhibition should not decrease phosphorylation of myristoylated Akt (myrAkt) since this construct bypasses lipid recruitment signals for membrane association. […] Tetracycline inducible myrAktl-expressing U87MG cells, or parental cells, were seeded into media containing 0.1 ug/ml tetracycline and protein expression induced for approximately 24 hours. […] Cells were seeded and treated as in figure A and immunoblotted for phosphorylated and total AMPK. AMPK activation was quantitated by densitometric quantification of the phospho-AMPK band over the total AMPK band. Fold changes were calculated by normalizing the DMSO condition to 1 for each cell line. […] Referring to FIG. 23B, parental or myrAktl U87MG cells were treated with the indicated inhibitors as in 23A overnight before blotting for phosphorylated and total Akt.

O=C(NCCN1CCC2(CC1)C(=O)NCN2c1cccc(F)c1)c1ccc2ccccc2c1 [No. 1, N-(2-(1-(3-fluorophenyl)-4-oxo-1,3,8-triazaspiro[4.5]decan-8-yl)ethyl)-2-naphthamide]
accumulation of LC3-II in the presence of bafilomycin A1 (LC3 and p62): no additional accumulation of LC3-II | phosphorylated Akt in myrAktl U87MG cells (myrAktl): failed to reduce levels of phosphorylated Akt
